Test results as given in ChEMBL document CHEMBL1151812, “Homotyrosine-containing cyanopeptolins 880 and 960 and anabaenopeptins 908 and 915 from Planktothrix agardhii CYA 126/8” (J Nat Prod, 2009).
Active and inactive are the calls of the source. No cut-off for these calls is given here. Numbered stars: 1 amine (or outer) side, 2 acyl side, 3 side chain; on linkers, the order of the positions; unused ones are H or OH. Bridge positions count the residues as written; N and C are the ends. Square brackets hold non-standard residues; d marks the D form. Peptide text beside a SMILES is read from it. NMehTyr = CN[C@@H](CCc1ccc(O)cc1)C(=O)O; hTyr = N[C@@H](CCc1ccc(O)cc1)C(=O)O; CO = O=C([*:1])[*:2]

Tests used:
Carboxypeptidase A1 = biological target: T1, Carboxypeptidase A1 (Homo sapiens, UniProt P15085); test: Inhibition of carboxypeptidase A
T1 sequence (P15085 whole entry): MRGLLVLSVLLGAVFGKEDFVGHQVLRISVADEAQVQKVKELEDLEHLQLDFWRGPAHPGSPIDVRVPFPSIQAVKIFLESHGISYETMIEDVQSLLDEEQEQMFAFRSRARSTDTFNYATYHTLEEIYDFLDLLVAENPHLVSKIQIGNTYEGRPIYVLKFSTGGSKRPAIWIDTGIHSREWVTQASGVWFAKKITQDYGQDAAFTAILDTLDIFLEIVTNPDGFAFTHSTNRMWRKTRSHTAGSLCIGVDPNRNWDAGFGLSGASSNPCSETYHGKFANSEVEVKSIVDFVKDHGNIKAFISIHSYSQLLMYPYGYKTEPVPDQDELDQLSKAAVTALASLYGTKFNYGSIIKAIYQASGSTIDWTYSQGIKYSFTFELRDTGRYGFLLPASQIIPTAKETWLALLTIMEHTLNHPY

[1] = Inhibition of trypsin up to 100 ug/ml
[2] = Inhibition of chymotrypsin up to 100 ug/ml
[3] = biological target: T2, Carboxypeptidase A1 (Homo sapiens) (UniProt P15085); test: Inhibition of carboxypeptidase A up to 20 ug/ml
T2 sequence (whole entry): T1 sequence (P15085 whole entry)

IC50 (Carboxypeptidase A1) [nM] | Activity [1] | Activity [2] | Activity [3] | Compound
131 | inactive | inactive |  | CC[C@H](C)[C@@H]1NC(=O)[C@H](CCc2ccc(O)cc2)N(C)C(=O)[C@H](CCc2ccc(O)cc2)NC(=O)[C@H](C(C)C)NC(=O)[C@H](NC(=O)N[C@@H](Cc2ccc(O)cc2)C(=O)O)CCCCNC1=O [ANABAENOPEPTIN 915] ({Tyr-CO}-[dK]V[hTyr][NMehTyr]I; lactam 1-C)
 | inactive | inactive | inactive | CC[C@H](C)[C@@H]1NC(=O)[C@H](CCc2ccc(O)cc2)N(C)C(=O)[C@H](CCc2ccc(O)cc2)NC(=O)[C@H](C(C)C)NC(=O)[C@H](NC(=O)N[C@@H](CCCNC(=N)N)C(=O)O)CCCCNC1=O ({Arg-CO}-[dK]V[hTyr][NMehTyr]I; lactam 1-C)
